Assay: Crystal form stability test (preservation, then powder X-ray diffraction and content)
Type: physicochemical
Description: Using high-speed imaging plate X-ray diffraction system (R-AXIS VII) manufactured by Rigaku Corporation, X-ray diffraction data of the crystals of the compound of the formula (1) were measured at −180° C. with a CuK α radiation (50 kV, 90 mA, λ=1.5418 Å). A sample was filled in a glass capillary having an inner diameter of 0.7 mm. The diffraction images were collected under the conditions a camera length of 300 mm, an oscillation angle of 40°, and an exposure time of 45 minutes. A contour integration treatment of the diffraction image was carried out by an R-AXIS display software available from Rigaku Corporation (integration range: 45 to 135°). The maximum value of the obtained integrated intensity was made 100, relative intensities of the respective integral intensities were calculated, and plotting them based on the diffraction angle 20 to prepare a diffraction pattern. With regard to the crystals of the compounds of the formula (1), these were preserved under the following mentioned temperature and humidity conditions, and then powder X-ray diffractions were measured. […] Term: 12 months Preservation condition: 25±2° C./[…] Packaging form: Polyethylene double bag/fiber drum Term: 6 months Preservation condition: 40±2° C./75±5% RH* *: RH: relative humidity Packaging form: Polyethylene double bag/fiber drum

[1] = Test 1, 25° C./60% RH, at starting
[2] = Test 1, 25° C./60% RH, preservation period 3 months
[3] = Test 1, 25° C./60% RH, preservation period 6 months
[4] = Test 1, 25° C./60% RH, preservation period 9 months
[5] = Test 1, 25° C./60% RH, preservation period 12 months
[6] = Test 2, 40° C./75% RH, preservation period 1 month
[7] = Test 2, 40° C./75% RH, preservation period 3 months
[8] = Test 2, 40° C./75% RH, preservation period 6 months

Content (%) [1]: (99.7%)*
Crystal form (powder X-ray diffraction) [1]: Form A
Content (%) [2]: (99.9%)*
Crystal form (powder X-ray diffraction) [2]: Form A
Content (%) [3]: (98.9%)*
Crystal form (powder X-ray diffraction) [3]: Form A
Content (%) [4]: (99.9%)*
Crystal form (powder X-ray diffraction) [4]: Form A
Content (%) [5]: (99.0%)*
Crystal form (powder X-ray diffraction) [5]: Form A
Change in crystal form after preservation (Test 1 and Test 2, either of the measurement times): no change in crystal form was observed
Content (%) [6]: (100.3%)*
Crystal form (powder X-ray diffraction) [6]: Form A
Content (%) [7]: (100.6%)*
Crystal form (powder X-ray diffraction) [7]: Form A
Content (%) [8]: (100.4%)*
Crystal form (powder X-ray diffraction) [8]: Form A
Period over which Form A crystals were extremely stable and high purity (even under the accelerated conditions): ≥ 6 months
SMILES: Cc1ccc(-n2nc(C)cc2C)c(O)c1 [formula (1), 2-(3,5-dimethyl-1H-pyrazol-1-yl)-5-methylphenol]
